How the values were obtained:
[1] = molecular target: T1, proteins of HEK293T cells transiently overexpressing caspase-6 (Homo sapiens, UniProt Q13162); assay type: cell-based
T1 sequence (Q13162 38-271): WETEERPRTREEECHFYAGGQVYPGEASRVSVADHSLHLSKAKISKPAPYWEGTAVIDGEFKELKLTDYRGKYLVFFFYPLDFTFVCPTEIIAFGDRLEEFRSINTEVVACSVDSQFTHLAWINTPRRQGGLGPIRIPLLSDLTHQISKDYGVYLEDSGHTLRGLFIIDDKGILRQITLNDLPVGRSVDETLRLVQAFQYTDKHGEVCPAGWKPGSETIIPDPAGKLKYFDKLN

[2] = molecular target: proteins of HEK293T cells transiently overexpressing caspase-6 (Homo sapiens, UniProt P32119); assay type: cell-based; settings: exp_ref Probe; protein PRDX2 (P32119); analysis C6
[3] = molecular target: proteins of HEK293T cells transiently overexpressing caspase-6 (Homo sapiens, UniProt P62917); assay type: cell-based; settings: Probe; protein RPL8 P62917
[4] = molecular target: proteins of HEK293T cells transiently overexpressing caspase-6 (Homo sapiens, UniProt Q14157); assay type: cell-based; settings: Probe; protein UBAP2L Q14157
[5] = molecular target: proteins of HEK293T cells transiently overexpressing caspase-6 (Homo sapiens, UniProt Q96AG4); assay type: cell-based; settings: protein LRRC59 (Q96AG4); exp_ref Probe; analysis C6
[6] = molecular target: proteins of HEK293T cells transiently overexpressing caspase-6 (Homo sapiens, UniProt Q9UEG4); assay type: cell-based
[7] = molecular target: proteins of HEK293T cells transiently overexpressing caspase-6 (Homo sapiens, UniProt P31948); assay type: cell-based
[8] = molecular target: proteins of HEK293T cells transiently overexpressing caspase-6 (Homo sapiens, UniProt P08238); assay type: cell-based; settings: exp_ref Probe; protein HSP90AB1 (P08238); analysis C6
[9] = molecular target: proteins of HEK293T cells transiently overexpressing caspase-6 (Homo sapiens, UniProt Q14974); assay type: cell-based; settings: protein KPNB1 (Q14974)
[10] = molecular target: proteins of HEK293T cells transiently overexpressing caspase-6 (Homo sapiens, UniProt P06744); assay type: cell-based; settings: protein GPI (P06744), analysis C6
[11] = molecular target: proteins of HEK293T cells transiently overexpressing caspase-6 (Homo sapiens, UniProt P08670); assay type: cell-based
[12] = molecular target: proteins of HEK293T cells transiently overexpressing caspase-6 (Homo sapiens, UniProt Q86YZ3); assay type: cell-based; settings: Probe; protein HRNR Q86YZ3
[13] = molecular target: proteins of HEK293T cells transiently overexpressing caspase-6 (Homo sapiens, UniProt Q9UJU6); assay type: cell-based; settings: Probe; protein DBNL Q9UJU6
[14] = molecular target: proteins of HEK293T cells transiently overexpressing caspase-6 (Homo sapiens, UniProt Q9BVP2); assay type: cell-based; settings: exp_ref Probe; protein GNL3 (Q9BVP2); analysis C6
[15] = molecular target: proteins of HEK293T cells transiently overexpressing caspase-6 (Homo sapiens, UniProt P15880); assay type: cell-based; settings: protein RPS2 (P15880)
[16] = molecular target: proteins of HEK293T cells transiently overexpressing caspase-6 (Homo sapiens, UniProt P25788); assay type: cell-based; settings: Probe; protein PSMA3 P25788
[17] = molecular target: proteins of HEK293T cells transiently overexpressing caspase-6 (Homo sapiens, UniProt P33992); assay type: cell-based; settings: exp_ref Probe; protein MCM5 (P33992); analysis C6
[18] = molecular target: proteins of HEK293T cells transiently overexpressing caspase-6 (Homo sapiens, UniProt P62826); assay type: cell-based; settings: exp_ref Probe; protein RAN (P62826); analysis C6
[19] = molecular target: proteins of HEK293T cells transiently overexpressing caspase-6 (Homo sapiens, UniProt Q92598); assay type: cell-based; settings: exp_ref Probe; protein HSPH1 (Q92598); analysis C6
[20] = molecular target: proteins of HEK293T cells transiently overexpressing caspase-6 (Homo sapiens, UniProt Q13838); assay type: cell-based; settings: exp_ref Probe; protein DDX39B (Q13838); analysis C6
[21] = molecular target: proteins of HEK293T cells transiently overexpressing caspase-6 (Homo sapiens, UniProt Q9H3N1); assay type: cell-based; settings: protein TMX1 (Q9H3N1); exp_ref Probe; analysis C6
[22] = molecular target: proteins of HEK293T cells transiently overexpressing caspase-6 (Homo sapiens, UniProt P49321); assay type: cell-based; settings: exp_ref Probe; protein NASP (P49321); analysis C6
[23] = test system: human caspases C1–C10; experiment: Caspase selectivity assays (Eurofins/Panlabs), 10 µM 3a; assay type: biochemical; settings: 3a at 10 μM

proteins of HEK293T cells transiently overexpressing caspase-6 (Homo sapiens, UniProt P31948), sequence (P31948 whole entry): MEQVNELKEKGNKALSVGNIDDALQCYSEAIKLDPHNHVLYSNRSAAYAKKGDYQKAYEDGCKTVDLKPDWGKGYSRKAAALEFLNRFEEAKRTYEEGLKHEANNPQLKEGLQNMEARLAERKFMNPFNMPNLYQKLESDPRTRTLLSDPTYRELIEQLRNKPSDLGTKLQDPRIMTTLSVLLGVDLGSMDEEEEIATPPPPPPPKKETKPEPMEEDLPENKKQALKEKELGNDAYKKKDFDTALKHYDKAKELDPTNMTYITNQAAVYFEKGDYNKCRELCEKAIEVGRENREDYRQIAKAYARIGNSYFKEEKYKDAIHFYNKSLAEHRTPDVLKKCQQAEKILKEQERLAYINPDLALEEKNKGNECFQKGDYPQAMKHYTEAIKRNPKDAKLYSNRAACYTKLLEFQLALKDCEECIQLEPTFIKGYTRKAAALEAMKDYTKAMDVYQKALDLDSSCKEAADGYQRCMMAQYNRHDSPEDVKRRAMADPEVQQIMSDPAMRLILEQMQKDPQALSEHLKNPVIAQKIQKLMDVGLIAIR
proteins of HEK293T cells transiently overexpressing caspase-6 (Homo sapiens, UniProt Q9UEG4), sequence (Q9UEG4 whole entry): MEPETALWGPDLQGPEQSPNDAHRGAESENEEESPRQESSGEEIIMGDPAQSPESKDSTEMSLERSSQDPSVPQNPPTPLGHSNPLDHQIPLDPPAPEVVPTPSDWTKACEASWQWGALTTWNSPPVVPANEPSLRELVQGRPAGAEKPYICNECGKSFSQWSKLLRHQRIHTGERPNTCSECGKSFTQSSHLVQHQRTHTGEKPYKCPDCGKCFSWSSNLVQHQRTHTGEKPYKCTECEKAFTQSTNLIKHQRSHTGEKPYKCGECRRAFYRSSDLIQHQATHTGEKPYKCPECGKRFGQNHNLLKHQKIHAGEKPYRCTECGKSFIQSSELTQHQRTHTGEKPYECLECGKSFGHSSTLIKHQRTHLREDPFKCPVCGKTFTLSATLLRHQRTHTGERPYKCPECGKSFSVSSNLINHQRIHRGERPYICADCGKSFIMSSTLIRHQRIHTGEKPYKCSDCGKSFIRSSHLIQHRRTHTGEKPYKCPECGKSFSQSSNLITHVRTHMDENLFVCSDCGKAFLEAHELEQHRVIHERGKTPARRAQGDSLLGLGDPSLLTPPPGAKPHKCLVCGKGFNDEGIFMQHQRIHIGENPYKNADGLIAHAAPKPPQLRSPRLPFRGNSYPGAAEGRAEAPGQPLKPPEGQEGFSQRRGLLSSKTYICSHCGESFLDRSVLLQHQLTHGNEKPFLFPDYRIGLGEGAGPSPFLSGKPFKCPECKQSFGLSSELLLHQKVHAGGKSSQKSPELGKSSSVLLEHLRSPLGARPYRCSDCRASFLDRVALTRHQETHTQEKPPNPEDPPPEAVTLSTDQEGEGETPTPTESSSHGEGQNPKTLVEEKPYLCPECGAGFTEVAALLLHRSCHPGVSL
proteins of HEK293T cells transiently overexpressing caspase-6 (Homo sapiens, UniProt P08670), sequence (P08670 whole entry): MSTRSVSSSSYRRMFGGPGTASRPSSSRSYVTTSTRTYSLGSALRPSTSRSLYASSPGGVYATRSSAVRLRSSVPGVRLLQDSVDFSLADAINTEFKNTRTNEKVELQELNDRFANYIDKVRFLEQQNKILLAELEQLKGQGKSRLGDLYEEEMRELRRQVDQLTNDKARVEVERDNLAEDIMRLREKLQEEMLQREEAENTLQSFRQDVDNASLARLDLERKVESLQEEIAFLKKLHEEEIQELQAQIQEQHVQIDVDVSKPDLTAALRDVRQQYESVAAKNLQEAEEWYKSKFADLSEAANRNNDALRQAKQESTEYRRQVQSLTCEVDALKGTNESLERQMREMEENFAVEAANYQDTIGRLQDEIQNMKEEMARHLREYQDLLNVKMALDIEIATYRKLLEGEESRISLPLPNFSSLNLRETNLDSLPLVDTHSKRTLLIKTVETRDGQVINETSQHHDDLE
proteins of HEK293T cells transiently overexpressing caspase-6 (Homo sapiens, UniProt Q14974), sequence (Q14974 whole entry): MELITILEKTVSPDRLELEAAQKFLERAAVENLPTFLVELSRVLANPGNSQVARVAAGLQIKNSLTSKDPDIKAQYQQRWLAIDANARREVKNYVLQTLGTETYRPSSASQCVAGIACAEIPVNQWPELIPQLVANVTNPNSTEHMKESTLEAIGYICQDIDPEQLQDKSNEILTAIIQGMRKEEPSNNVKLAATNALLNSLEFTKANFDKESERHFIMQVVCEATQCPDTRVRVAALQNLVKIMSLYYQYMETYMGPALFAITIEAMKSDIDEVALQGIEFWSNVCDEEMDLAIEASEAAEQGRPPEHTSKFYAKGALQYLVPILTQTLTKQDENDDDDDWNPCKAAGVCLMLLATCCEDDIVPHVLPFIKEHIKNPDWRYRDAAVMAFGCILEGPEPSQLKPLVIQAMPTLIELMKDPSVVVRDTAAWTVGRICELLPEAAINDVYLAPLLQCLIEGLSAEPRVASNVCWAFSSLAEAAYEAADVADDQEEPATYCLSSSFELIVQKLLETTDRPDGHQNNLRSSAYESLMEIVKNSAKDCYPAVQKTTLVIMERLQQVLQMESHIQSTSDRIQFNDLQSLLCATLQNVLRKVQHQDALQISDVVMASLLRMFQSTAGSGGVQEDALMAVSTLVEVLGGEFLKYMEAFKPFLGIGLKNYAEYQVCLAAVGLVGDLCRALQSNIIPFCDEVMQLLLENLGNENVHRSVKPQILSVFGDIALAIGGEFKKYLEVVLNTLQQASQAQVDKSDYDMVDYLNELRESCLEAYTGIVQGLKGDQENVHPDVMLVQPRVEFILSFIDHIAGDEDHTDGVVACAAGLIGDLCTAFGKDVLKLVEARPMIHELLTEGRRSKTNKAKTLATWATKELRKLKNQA
proteins of HEK293T cells transiently overexpressing caspase-6 (Homo sapiens, UniProt Q92598), sequence (Q92598 whole entry): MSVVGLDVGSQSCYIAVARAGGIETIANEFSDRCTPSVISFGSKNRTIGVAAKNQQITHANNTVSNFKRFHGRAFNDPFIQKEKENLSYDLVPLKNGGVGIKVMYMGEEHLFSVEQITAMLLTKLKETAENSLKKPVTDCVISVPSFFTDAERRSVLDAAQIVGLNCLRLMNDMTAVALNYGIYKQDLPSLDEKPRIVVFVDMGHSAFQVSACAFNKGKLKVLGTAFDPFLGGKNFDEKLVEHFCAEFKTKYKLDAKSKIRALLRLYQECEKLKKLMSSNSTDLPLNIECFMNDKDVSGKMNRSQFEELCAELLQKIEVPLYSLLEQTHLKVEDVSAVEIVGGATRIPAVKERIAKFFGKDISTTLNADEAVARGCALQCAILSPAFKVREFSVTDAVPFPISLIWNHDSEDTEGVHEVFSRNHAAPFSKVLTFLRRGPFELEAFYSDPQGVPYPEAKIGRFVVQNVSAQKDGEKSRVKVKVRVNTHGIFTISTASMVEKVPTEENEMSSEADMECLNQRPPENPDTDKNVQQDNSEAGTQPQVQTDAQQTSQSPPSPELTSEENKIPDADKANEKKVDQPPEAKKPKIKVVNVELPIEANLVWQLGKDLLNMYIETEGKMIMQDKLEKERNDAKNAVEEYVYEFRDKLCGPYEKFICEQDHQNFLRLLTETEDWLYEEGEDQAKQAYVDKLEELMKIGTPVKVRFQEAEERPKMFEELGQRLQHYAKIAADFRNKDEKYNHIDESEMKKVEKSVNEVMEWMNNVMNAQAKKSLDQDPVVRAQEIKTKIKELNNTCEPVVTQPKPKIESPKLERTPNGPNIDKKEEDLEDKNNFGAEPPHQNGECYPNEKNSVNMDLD
proteins of HEK293T cells transiently overexpressing caspase-6 (Homo sapiens, UniProt Q9BVP2), sequence (Q9BVP2 whole entry): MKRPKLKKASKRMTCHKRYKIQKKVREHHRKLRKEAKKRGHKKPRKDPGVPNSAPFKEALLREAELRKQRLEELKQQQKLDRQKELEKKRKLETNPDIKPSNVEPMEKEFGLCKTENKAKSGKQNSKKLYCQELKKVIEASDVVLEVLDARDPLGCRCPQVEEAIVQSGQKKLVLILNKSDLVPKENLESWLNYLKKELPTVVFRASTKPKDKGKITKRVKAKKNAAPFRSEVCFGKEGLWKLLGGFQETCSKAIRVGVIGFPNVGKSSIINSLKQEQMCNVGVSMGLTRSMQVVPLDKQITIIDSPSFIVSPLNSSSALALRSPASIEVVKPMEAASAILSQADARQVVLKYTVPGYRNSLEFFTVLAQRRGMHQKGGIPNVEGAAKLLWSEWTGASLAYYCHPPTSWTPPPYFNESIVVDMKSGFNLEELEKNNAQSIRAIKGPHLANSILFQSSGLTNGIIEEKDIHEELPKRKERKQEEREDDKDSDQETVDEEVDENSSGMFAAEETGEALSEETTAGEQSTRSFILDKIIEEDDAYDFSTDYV
proteins of HEK293T cells transiently overexpressing caspase-6 (Homo sapiens, UniProt Q96AG4), sequence (Q96AG4 whole entry): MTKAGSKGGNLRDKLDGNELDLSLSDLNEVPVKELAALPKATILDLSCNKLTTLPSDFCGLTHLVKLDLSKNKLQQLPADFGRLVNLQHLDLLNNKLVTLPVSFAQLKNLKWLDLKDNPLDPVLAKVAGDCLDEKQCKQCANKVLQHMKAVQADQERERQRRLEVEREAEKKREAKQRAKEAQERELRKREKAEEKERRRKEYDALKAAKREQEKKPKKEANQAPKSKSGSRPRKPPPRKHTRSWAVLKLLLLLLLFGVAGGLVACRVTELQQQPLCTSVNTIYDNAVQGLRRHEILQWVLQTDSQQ
proteins of HEK293T cells transiently overexpressing caspase-6 (Homo sapiens, UniProt P32119), sequence (P32119 whole entry): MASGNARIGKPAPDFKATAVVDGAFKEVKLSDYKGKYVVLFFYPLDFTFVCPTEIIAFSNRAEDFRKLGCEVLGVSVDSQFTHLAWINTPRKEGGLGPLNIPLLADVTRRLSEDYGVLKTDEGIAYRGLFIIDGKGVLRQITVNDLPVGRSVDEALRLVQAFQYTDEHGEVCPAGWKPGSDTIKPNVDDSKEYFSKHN
proteins of HEK293T cells transiently overexpressing caspase-6 (Homo sapiens, UniProt P25788), sequence (P25788 whole entry): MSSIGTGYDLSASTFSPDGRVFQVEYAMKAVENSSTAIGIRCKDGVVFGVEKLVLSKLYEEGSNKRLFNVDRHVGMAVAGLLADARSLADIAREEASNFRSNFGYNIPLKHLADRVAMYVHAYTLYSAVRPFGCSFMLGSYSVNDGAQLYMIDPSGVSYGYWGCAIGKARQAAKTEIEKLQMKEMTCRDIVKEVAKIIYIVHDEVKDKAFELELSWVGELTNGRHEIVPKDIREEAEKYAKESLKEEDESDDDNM

Q: `C#CCOc1ccc([C@@H]2C[C@@H](C(=O)Nc3ccc(OC(F)(F)F)cc3)CN(S(=O)(=O)C=C)C2)cc1` (relative stereo) [13-t] was tested. Which enrich.exp.med ([1]; Probe, protein PRDX4 Q13162) did it give?
A: The enrich.exp.med was -1.846.

Q: And the enrich.exp.med.lin ([1]; protein PRDX4 (Q13162))?
A: The enrich.exp.med.lin was 0.2781.

Q: And the enrich.exp.med.log2 ([1]; protein PRDX4 (Q13162))?
A: Its enrich.exp.med.log2 is -1.846.

Q: What about the enrich.exp.med [2] of the same molecule?
A: Its enrich.exp.med is 0.2933.

Q: And the enrich.exp.med [3]?
A: Its enrich.exp.med is -0.8445.

Q: What about the enrich.exp.med [4] of the same molecule?
A: The enrich.exp.med was -0.84.

Q: And the enrich.exp.med [5]?
A: Its enrich.exp.med is 2.108.

Q: What about the enrich.exp.med ([6]; Probe, protein ZNF629 Q9UEG4) of the same molecule?
A: Its enrich.exp.med is -2.2193.

Q: What about the enrich.exp.med.lin ([6]; protein ZNF629 (Q9UEG4)) of the same molecule?
A: Its enrich.exp.med.lin is 0.2147.

Q: And the enrich.exp.med.log2 ([6]; protein ZNF629 (Q9UEG4))?
A: The enrich.exp.med.log2 was -2.2193.

Q: What about the enrich.exp.med ([7]; Probe, protein STIP1 P31948) of the same molecule?
A: The enrich.exp.med was -0.591.

Q: What about the enrich.exp.med.lin ([7]; protein STIP1 (P31948)) of the same molecule?
A: Its enrich.exp.med.lin is 0.6639.

Q: And the enrich.exp.med.log2 ([7]; protein STIP1 (P31948))?
A: Its enrich.exp.med.log2 is -0.591.

Q: What about the enrich.exp.med [8] of the same molecule?
A: Its enrich.exp.med is 0.3736.

Q: And the enrich.exp.med ([9]; exp_ref Probe, analysis C6)?
A: Its enrich.exp.med is 0.7787.

Q: What about the enrich.exp.med.lin [9] of the same molecule?
A: Its enrich.exp.med.lin is 1.716.

Q: What about the enrich.exp.med.log2 [9] of the same molecule?
A: Its enrich.exp.med.log2 is 0.7787.

Q: And the enrich.exp.med.lin ([10]; Expt Probe)?
A: Its enrich.exp.med.lin is 5.762.

Q: And the enrich.exp.med.log2 ([10]; Expt Probe)?
A: The enrich.exp.med.log2 was 2.527.

Q: And the enrich.exp.med ([10]; exp_ref Probe)?
A: Its enrich.exp.med is 2.527.

Q: What about the enrich.exp.med ([11]; Probe, protein VIM P08670) of the same molecule?
A: The enrich.exp.med was -1.006.

Q: What about the enrich.exp.med.lin ([11]; protein VIM (P08670)) of the same molecule?
A: The enrich.exp.med.lin was 0.4978.

Q: What about the enrich.exp.med.log2 ([11]; protein VIM (P08670)) of the same molecule?
A: The enrich.exp.med.log2 was -1.006.

Q: What about the enrich.exp.med [12] of the same molecule?
A: Its enrich.exp.med is -8.887.

Q: What about the enrich.exp.med [13] of the same molecule?
A: Its enrich.exp.med is -0.5155.

Q: What about the enrich.exp.med [14] of the same molecule?
A: Its enrich.exp.med is 0.541.

Q: And the enrich.exp.med ([15]; exp_ref Probe, analysis C6)?
A: The enrich.exp.med was 0.988.

Q: What about the enrich.exp.med.lin [15] of the same molecule?
A: Its enrich.exp.med.lin is 1.9835.

Q: What about the enrich.exp.med.log2 [15] of the same molecule?
A: Its enrich.exp.med.log2 is 0.988.

Q: What about the enrich.exp.med [16] of the same molecule?
A: Its enrich.exp.med is -2.444.

Q: And the enrich.exp.med [17]?
A: The enrich.exp.med was 1.028.

Q: What about the enrich.exp.med [18] of the same molecule?
A: The enrich.exp.med was 0.5777.

Q: And the enrich.exp.med [19]?
A: Its enrich.exp.med is 0.7489.

Q: And the enrich.exp.med [20]?
A: Its enrich.exp.med is 0.9779.

Q: What about the enrich.exp.med [21] of the same molecule?
A: Its enrich.exp.med is 2.103.

Q: And the enrich.exp.med [22]?
A: Its enrich.exp.med is 0.1581.

Q: For `C=CS(=O)(=O)N1C[C@H](C(=O)Nc2ccc(OC(F)(F)F)cc2)C[C@@H](c2ccccc2)C1` [3a], which “effect on the other caspase isoforms (in words)” value [23] is on record?
A: Its value is “little, if any, effect”.

Reference: PMC10176470, “Engaging a Non-catalytic Cysteine Residue Drives Potent and Selective Inhibition of Caspase-6” (Journal of the American Chemical Society, 2023)
